Source: patent publication US7161031B2, “Amino-substituted sulfonanilides and derivatives thereof for treating proliferative disorders” (Temple University - Of The Commonwealth System of Higher …, priority 2002, dated 2007)

Tests used:
Assay in all cases: Tumor cell killing, viable cell count by trypan blue exclusion
Type in all cases: cell-based
BT20 tumor cell line = settings: BT20 cells, viable cells counted 96 hours after treatment
Description: (§1) The effect of the amino-substituted sulfonanilides on normal fibroblasts and on tumor cells may be determined by the assay described by Latham et al., Oncogene 12:827–837 (1996). Normal diploid lung human fibroblasts (HFL-1) or tumor cells (e.g., prostate, colorectal, breast, glial, pancreatic, ovarian, lung or leukemic) are plated in 6-well dishes at a cell density of 1.0×10^5 cells per […]. The plated cells are treated 24 hours later with various concentrations of amino-substituted sulfonanilide dissolved in dimethyl sulfoxide (DMSO). The total number of viable cells is determined 96 hours later by trypsinizing the wells and counting the number of viable cells, as determined by trypan blue exclusion, using a hemacytometer. Normal HFL cells are treated with the same compounds under the same conditions of concentration and time. Biological data for compounds of the present invention is shown in Table 5 below in DU145, BT20, DLD1 and H157 tumor cell lines.

H157 tumor cell line = settings: H157 cells, viable cells counted 96 hours after treatment
Description: as §1

DU145 tumor cell line = settings: DU145 cells, viable cells counted 96 hours after treatment
Description: as §1

DLD1 tumor cell line = settings: DLD1 cells, viable cells counted 96 hours after treatment
Description: as §1

Compound: COc1cc(OC)c(/C=C/S(=O)(=O)Nc2ccc(OC)c(NC(=O)CN3CCN(C)CC3)c2)c(OC)c1 [Example 8, (E)-2,4,6-Trimethoxystyryl-N-[3-(4-methylpiperazinyl)-acetamido-4-methoxyphenyl]sulfonamide]
- tumor cell killing activity BT20 (BT20 tumor cell line): + (A (+) in the table indicates that the compound showed tumor cell killing activity at a concentration of less than 20 micromolar)
- tumor cell killing activity H157 (H157 tumor cell line): + (A (+) in the table indicates that the compound showed tumor cell killing activity at a concentration of less than 20 micromolar)
- tumor cell killing activity DU145 (DU145 tumor cell line): + (A (+) in the table indicates that the compound showed tumor cell killing activity at a concentration of less than 20 micromolar)
- tumor cell killing activity DLD1 (DLD1 tumor cell line): + (A (+) in the table indicates that the compound showed tumor cell killing activity at a concentration of less than 20 micromolar)

Compound: COc1cc(OC)c(/C=C/S(=O)(=O)Nc2ccc(OC)c(NC(C)=O)c2)c(OC)c1 [Example 2, (E)-2,4,6-Trimethoxystyryl-N-[(3-acetamido)4-methoxyphenyl]-sulfonamide]
- tumor cell killing activity BT20 (BT20 tumor cell line): + (A (+) in the table indicates that the compound showed tumor cell killing activity at a concentration of less than 20 micromolar)
- tumor cell killing activity H157 (H157 tumor cell line): + (A (+) in the table indicates that the compound showed tumor cell killing activity at a concentration of less than 20 micromolar)
- tumor cell killing activity DU145 (DU145 tumor cell line): + (A (+) in the table indicates that the compound showed tumor cell killing activity at a concentration of less than 20 micromolar)
- tumor cell killing activity DLD1 (DLD1 tumor cell line): + (A (+) in the table indicates that the compound showed tumor cell killing activity at a concentration of less than 20 micromolar)

Compound: COc1cc(OC)c(/C=C/S(=O)(=O)Nc2ccc(OC)c(NC(=O)CCl)c2)c(OC)c1 [Example 7, (E)-2,4,6-Trimethoxystyryl-N-[(3-chloroacetamido)-4-methoxyphenyl]-sulfonamide]
- tumor cell killing activity BT20 (BT20 tumor cell line): + (A (+) in the table indicates that the compound showed tumor cell killing activity at a concentration of less than 20 micromolar)
- tumor cell killing activity H157 (H157 tumor cell line): + (A (+) in the table indicates that the compound showed tumor cell killing activity at a concentration of less than 20 micromolar)
- tumor cell killing activity DU145 (DU145 tumor cell line): + (A (+) in the table indicates that the compound showed tumor cell killing activity at a concentration of less than 20 micromolar)
- tumor cell killing activity DLD1 (DLD1 tumor cell line): + (A (+) in the table indicates that the compound showed tumor cell killing activity at a concentration of less than 20 micromolar)

Compound: COc1cc(OC)c(/C=C/S(=O)(=O)Nc2ccc(OC)c(NC(=O)COC(C)=O)c2)c(OC)c1 [Example 4, (E)-2,4,6-Trimethoxystyryl-N-[(3-acetoxyacetamido)-4-methoxy-phenyl]sulfonamide]
- tumor cell killing activity BT20 (BT20 tumor cell line): + (A (+) in the table indicates that the compound showed tumor cell killing activity at a concentration of less than 20 micromolar)
- tumor cell killing activity H157 (H157 tumor cell line): + (A (+) in the table indicates that the compound showed tumor cell killing activity at a concentration of less than 20 micromolar)
- tumor cell killing activity DU145 (DU145 tumor cell line): + (A (+) in the table indicates that the compound showed tumor cell killing activity at a concentration of less than 20 micromolar)
- tumor cell killing activity DLD1 (DLD1 tumor cell line): + (A (+) in the table indicates that the compound showed tumor cell killing activity at a concentration of less than 20 micromolar)

Compound: COc1cc(OC)c(/C=C/S(=O)(=O)Nc2ccc(OC)c(NCC(=O)N(C)C)c2)c(OC)c1 [Example 1, (E)-2,4,6-Trimethoxystyryl-N-[(3-N,N-dimethylacetamido)-4-methoxyphenyl]sulfonamide]
- tumor cell killing activity BT20 (BT20 tumor cell line): + (A (+) in the table indicates that the compound showed tumor cell killing activity at a concentration of less than 20 micromolar)
- tumor cell killing activity H157 (H157 tumor cell line): + (A (+) in the table indicates that the compound showed tumor cell killing activity at a concentration of less than 20 micromolar)
- tumor cell killing activity DU145 (DU145 tumor cell line): + (A (+) in the table indicates that the compound showed tumor cell killing activity at a concentration of less than 20 micromolar)
- tumor cell killing activity DLD1 (DLD1 tumor cell line): + (A (+) in the table indicates that the compound showed tumor cell killing activity at a concentration of less than 20 micromolar)

Compound: COc1cc(OC)c(/C=C/S(=O)(=O)Nc2ccc(OC)c(NCC(=O)O)c2)c(OC)c1 [Example 5, (E)-2,4,6-Trimethoxystyryl-N-[(3-carboxymethylamino)-4-methoxyphenyl]sulfonamide]
- tumor cell killing activity BT20 (BT20 tumor cell line): + (A (+) in the table indicates that the compound showed tumor cell killing activity at a concentration of less than 20 micromolar)
- tumor cell killing activity H157 (H157 tumor cell line): + (A (+) in the table indicates that the compound showed tumor cell killing activity at a concentration of less than 20 micromolar)
- tumor cell killing activity DU145 (DU145 tumor cell line): + (A (+) in the table indicates that the compound showed tumor cell killing activity at a concentration of less than 20 micromolar)
- tumor cell killing activity DLD1 (DLD1 tumor cell line): + (A (+) in the table indicates that the compound showed tumor cell killing activity at a concentration of less than 20 micromolar)

Compound: COc1cc(OC)c(/C=C/S(=O)(=O)Nc2ccc(OC)c(NC(=O)CO)c2)c(OC)c1 [Example 6, (E)-2,4,6-Trimethoxystyryl-N-[(3-hydroxyacetamido)-4-methoxy-phenyl]sulfonamide]
- tumor cell killing activity BT20 (BT20 tumor cell line): + (A (+) in the table indicates that the compound showed tumor cell killing activity at a concentration of less than 20 micromolar)
- tumor cell killing activity H157 (H157 tumor cell line): + (A (+) in the table indicates that the compound showed tumor cell killing activity at a concentration of less than 20 micromolar)
- tumor cell killing activity DU145 (DU145 tumor cell line): + (A (+) in the table indicates that the compound showed tumor cell killing activity at a concentration of less than 20 micromolar)
- tumor cell killing activity DLD1 (DLD1 tumor cell line): + (A (+) in the table indicates that the compound showed tumor cell killing activity at a concentration of less than 20 micromolar)

Compound: (E)-2,4,6-Trimethoxystyryl-N-[(3-amino)-4-methoxyphenyl]-sulfonamide-L-lysineamide hydrochloride [Example 3]
- tumor cell killing activity BT20 (BT20 tumor cell line): + (A (+) in the table indicates that the compound showed tumor cell killing activity at a concentration of less than 20 micromolar)
- tumor cell killing activity H157 (H157 tumor cell line): + (A (+) in the table indicates that the compound showed tumor cell killing activity at a concentration of less than 20 micromolar)
- tumor cell killing activity DU145 (DU145 tumor cell line): + (A (+) in the table indicates that the compound showed tumor cell killing activity at a concentration of less than 20 micromolar)
- tumor cell killing activity DLD1 (DLD1 tumor cell line): + (A (+) in the table indicates that the compound showed tumor cell killing activity at a concentration of less than 20 micromolar)
